Values quoted from earlier work as cited in US12691120B2, “Liquid oral formulations for PDE V inhibitors” (LIQMEDS WORLDWIDE LIMITED, priority 2017, dated 2026).
Where a name gives a salt, the structure may show the parent alone. Read-outs that look alike come from different tables or passages of the source.

Legend:
[1] = tablets or oral suspension
[2] = oral administration
[3] = measured using rats
[4] = EMEA CHMP Assessment Report for Vizarsin
[5] = Jordanian Pharmaceutical Manufacturing Co.

| solubility in acetone [4] | solubility in chloroform [4] | solubility in dimethylsulfoxide (DMSO) [4] | solubility in ethanol [4] | solubility in methanol [4] | solubility in ethanol [5] | times less soluble in ethanol than in water [5] | absolute bioavailability [1] | water solubility | average time required to reach the maximum blood concentration (Cmax) [2] | bioavailability [3] | Structure (SMILES) |
| --- | --- | --- | --- | --- | --- | --- | --- | --- | --- | --- | --- |
| insoluble | insoluble | soluble | insoluble | soluble | ~ 1 mg/ml | about 3.5 times | about 41% | – | – | – | CCCc1nn(C)c2c(=O)[nH]c(-c3cc(S(=O)(=O)N4CCN(C)CC4)ccc3OCC)nc12 [Sildenafil citrate] |
| – | – | – | – | – | – | – | – | about 2 μg/mL | 2 h | 20.5% | CN1CC(=O)N2[C@H](c3ccc4c(c3)OCO4)c3[nH]c4ccccc4c3C[C@@H]2C1=O [Tadalafil] |
